Assay results taken from patent US20200338045A1, “ISOINDOLINE COMPOSITIONS AND METHODS FOR TREATING NEURODEGENERATIVE DISEASE” (priority 2017, published 2020).

Test system: CSF proteins
Assay: LC/MSMS protein expression in CSF (COG0102)
Type: in vivo, human
Description: Plasma and CSF protein expression were measured by LC/MSMS in samples drawn prior to dosing (Day 0) and at end of dosing (Day 28) and were compared within each patient and between dosing groups.
This trial (ClinicalTrials.gov NCT02907567) was a randomized, double-blind, placebo-controlled clinical trial in mild to moderate Alzheimer's patients (MMSE 18-26) (See FIG. 1 for clinical trial design). The trial was conducted at six sites in Australia. Patients were randomized into placebo (n=5) or CT1812-treated groups: 90 mg (n=4), 280 mg (n=5) or 560 mg (n=5) and treated once daily for 28 days. Clinical chemistry was done at Sydpath (Sydney, AU). Pharmacokinetics were done at CPR Pharma Services (Adelaide, AU). Cerebrospinal fluid samples were taken at screening and day 21-28 of treatment and aliquoted. Plasma samples were taken at screening or Day 1 (one sample) and day 14-28, then spun down to separate plasma and aliquoted. One set of CSF samples was analyzed for Alzheimer's disease biomarkers; protein measurements (Aβ42, A1340, total tau, tau phosphorylated at threonine 181 (phosphorylated tau), NFL and neurogranin) were performed using commercially available ELISA assays from Fujirebio according to the manufacturer's instructions (INNOTEST β-AMYLOID(1-42), INNOTEST β-AMYLOID(1-40), INNOTEST hTau Ag, INNOTEST PHOSPHO-TAU(181P), Uman Diagnostics NFL assay). Neurogranin was measured with a sandwich ELISA method using antibodies Ng2 and Ng22 developed at the University of Gotteborg (Kvartsberg et al. 2015). Identical aliquots of CSF, and plasma were analyzed for protein expression changes via LC/MSMS at Caprion (see below).
Matched screening and day 28 plasma and CSF samples were analyzed by LC/MSMS at Caprion Biosciences Inc. Plasma was depleted of high and medium abundance proteins using a commercial immunoaffinity column, IgY14-Supermix (Sigma). CSF was depleted of only 14 high abundance proteins using MARS-14 (Agilent). All samples were digested with trypsin and plasma samples were fractionated by strong cation exchange chromatography (3 fractions). Both CSF and plasma samples were analyzed using a NanoAcquity UPLC coupled to a Q Exactive MS. […] The 12 most intense peaks per survey scan with charge states 2-8 fragmented and scanned with a mass range from 200 to 2000 m/z at a resolution of 17,500. Raw spectrometer data files for each LC-MS run were aligned independently using Elucidator software (Rosetta Biosoftware). The MS/MS spectra were matched to corresponding peptide sequences found in the Uniprot Human protein database (January 2017) using Mascot software, allowing for up to 2 missed cleavages, a peptide tolerance of 20 ppm, and an MS/MS tolerance of 0.05 Da. Outlier detection was performed by determining the average log-intensity of all isotope groups (IG) over injection order for all samples. Samples with an average value greater than 2 standard deviations from the mean were flagged for investigation. Following data transformation and normalization, expression analysis of the identified isotope groups was performed and the statistical significance of each comparison was assessed with a parametric, linear mixed model (LMM) and a non-parametric Wilcoxon ranked test (ranked p-values). Expression analysis was also performed at the peptide and protein levels, which used the same methodology as above, but applied to peptide/protein intensities, derived by rolling-up the corresponding isotope group intensities. Isotope groups not detected in at least half of the samples in either of the two groups being compared were not used for the roll-up.
Table 5 lists 30 proteins that were detected with at least 20% change in placebo vs. treated 28 days vs screening. The following values are reported for each statistical analysis performed: FC: Fold change calculated from the protein normalized intensity. FC>10 or <0.1 are unusually large and may be artifacts. […]

[1] = 28 days vs screening, fold change

CC(C)(C)Oc1cc(CCC(C)(C)N2Cc3ccc(S(C)(=O)=O)cc3C2)ccc1O [CT1812]
Afamin, % change treated vs placebo: −19% | B3GNT9, % change treated vs placebo: 65% | CD14, % change treated vs placebo: 20% | Contactin 1, % change treated vs placebo: −23% | EphA4, % change treated vs placebo: −7% | FLNA, % change treated vs placebo: −51% | PDIA1, % change treated vs placebo: 21% | PDIA6, % change treated vs placebo: 44% | ROBO4, % change treated vs placebo: 62% | SERPINA4, % change treated vs placebo: −26% | Synaptotagmin, % change treated vs placebo: −59% | Tenascin C, % change treated vs placebo: −10% | Synaptotagmin-1 expression decreased, CT1812-treated vs. placebo (28 days): 63% | AFM, FC (Treated) [1]: 0.94 | ANGPTL2, FC (Treated) [1]: 0.80 | CAMK2D, FC (Treated) [1]: 1.04 | CD14, FC (Treated) [1]: 1.18 | CNTN1, FC (Treated) [1]: 0.97 | EFNB1, FC (Treated) [1]: 0.97 | EPHA4, FC (Treated) [1]: 0.94 | FGFR3, FC (Treated) [1]: 1.12 | GMFB, FC (Treated) [1]: 1.04 | GNPTG, FC (Treated) [1]: 1.18 | HLA-H, FC (Treated) [1]: 1.22 | ICAM2, FC (Treated) [1]: 1.11 | LILRB4, FC (Treated) [1]: 1.11 | MBL2, FC (Treated) [1]: 0.75 | MDGA2, FC (Treated) [1]: 1.01 | NPPC, FC (Treated) [1]: 0.90 | P4HB, FC (Treated) [1]: 1.10 | PDGFA, FC (Treated) [1]: 1.15 | PDIA6, FC (Treated) [1]: 1.15 | RBP4, FC (Treated) [1]: 0.82 | ROBO1, FC (Treated) [1]: 0.96 | ROBO4, FC (Treated) [1]: 1.22 | SAA4, FC (Treated) [1]: 1.17 | SEMA3F, FC (Treated) [1]: 1.40 | SERPINA4, FC (Treated) [1]: 0.88 | SMPDL3B, FC (Treated) [1]: 0.97 | SYT1, FC (Treated) [1]: 0.78 | TNC, FC (Treated) [1]: 1.04 | TPI1, FC (Treated) [1]: 0.90 | YWHAB, FC (Treated) [1]: 0.90 | AFM, FC (Treated vs. Placebo) (28 days, fold change): 0.84 | ANGPTL2, FC (Treated vs. Placebo) (28 days, fold change): 0.69 | CAMK2D, FC (Treated vs. Placebo) (28 days, fold change): 1.22 | CD14, FC (Treated vs. Placebo) (28 days, fold change): 1.20 | CNTN1, FC (Treated vs. Placebo) (28 days, fold change): 0.81 | EFNB1, FC (Treated vs. Placebo) (28 days, fold change): 0.93 | EPHA4, FC (Treated vs. Placebo) (28 days, fold change): 0.93 | FGFR3, FC (Treated vs. Placebo) (28 days, fold change): 1.83 | GMFB, FC (Treated vs. Placebo) (28 days, fold change): 1.41 | GNPTG, FC (Treated vs. Placebo) (28 days, fold change): 1.26 | HLA-H, FC (Treated vs. Placebo) (28 days, fold change): 1.37 | ICAM2, FC (Treated vs. Placebo) (28 days, fold change): 1.23 | LILRB4, FC (Treated vs. Placebo) (28 days, fold change): 1.25 | MDGA2, FC (Treated vs. Placebo) (28 days, fold change): 0.71 | NPPC, FC (Treated vs. Placebo) (28 days, fold change): 0.91 | P4HB, FC (Treated vs. Placebo) (28 days, fold change): 1.21 | PDGFA, FC (Treated vs. Placebo) (28 days, fold change): 1.27 | PDIA6, FC (Treated vs. Placebo) (28 days, fold change): 1.44 | RBP4, FC (Treated vs. Placebo) (28 days, fold change): 0.81 | ROBO1, FC (Treated vs. Placebo) (28 days, fold change): 0.82 | ROBO4, FC (Treated vs. Placebo) (28 days, fold change): 1.62 | SAA4, FC (Treated vs. Placebo) (28 days, fold change): 1.35 | SEMA3F, FC (Treated vs. Placebo) (28 days, fold change): 1.58 | SERPINA4, FC (Treated vs. Placebo) (28 days, fold change): 0.79 | SMPDL3B, FC (Treated vs. Placebo) (28 days, fold change): 1.24 | SYT1, FC (Treated vs. Placebo) (28 days, fold change): 0.63 | TNC, FC (Treated vs. Placebo) (28 days, fold change): 0.91 | TPI1, FC (Treated vs. Placebo) (28 days, fold change): 0.87 | YWHAB, FC (Treated vs. Placebo) (28 days, fold change): 0.81 | MBL2, FC (Treated vs. Placebo) (28 days, fold change, FC>10 may be artifacts): >10 | Afamin, With CT1812 (direction of change): significantly decreased and ↓* | B3GNT9, With CT1812 (direction of change): dose dependently increased and ↑ | CD14, With CT1812 (direction of change): significantly increased and ↑* | Contactin 1, With CT1812 (direction of change): significantly reduced and ↓* | EphA4, With CT1812 (direction of change): ↓* | FLNA, With CT1812 (direction of change): trend for reduction and ↓ | PDIA1, With CT1812 (direction of change): significantly increased and ↑* | PDIA6, With CT1812 (direction of change): significantly increased and ↑* | ROBO4, With CT1812 (direction of change): ↑* | SERPINA4, With CT1812 (direction of change): significantly reduced and ↓* | Synaptotagmin, With CT1812 (direction of change): significantly decreased and reduction and decreased and ↓* | Tenascin C, With CT1812 (direction of change): ↓* | Afamin, % change baseline treated (treated group vs baseline): −7% | B3GNT9, % change baseline treated (treated group vs baseline): 55% | CD14, % change baseline treated (treated group vs baseline): 18% | Contactin 1, % change baseline treated (treated group vs baseline): −3% | EphA4, % change baseline treated (treated group vs baseline): −6% | FLNA, % change baseline treated (treated group vs baseline): −26% | PDIA1, % change baseline treated (treated group vs baseline): 10% | PDIA6, % change baseline treated (treated group vs baseline): 15% | ROBO4, % change baseline treated (treated group vs baseline): 22% | SERPINA4, % change baseline treated (treated group vs baseline): −13% | Synaptotagmin, % change baseline treated (treated group vs baseline): −28% | Tenascin C, % change baseline treated (treated group vs baseline): 4%
